# Read-outs that look alike come from different tables or passages of the source.
# Tests used:
# [1] = biological target: T1, A156T mutant HCV NS3 serine protease domain (Hepatitis C virus genotype 1b, UniProt Q9WMX2, A1182T); test: FRET enzyme assay, Ki; assay type: biochemical
# T1 construct: A DNA fragment encoding residues Ala^1-Ser^181 of the HCV NS3 protease (GenBank CAB46913); hexa-histidine (C); made in house; host or cells: E. coli
# D168A HCV replicon cells = test: HCV replicon cell assay, 48-hour; assay type: cell-based, Hepatitis C virus; details: Hepatitis C virus, 48-hour assay
# Description: (§1) During the course of generating of the HCV sub-genomic replicon stable cell lines, several different patterns of adaptive mutations were identified. One pattern has three substitutions in the HCV nonstructural proteins, which were introduced into the original pBR322-HCV-Neo plasmid by site-directed mutagenesis to generate the second-generation sub-genomic replicon plasmid, pBR322-HCV-Neo-mADE. When the T7 run-offRNA transcripts from the Sca I-linearized pBR322-HCV-Neo-mADE plasmid were electroporated into Huh7 cells, stable replicon cell colonies were formed at a much higher efficiency than the original Con1 replicon RNA. The resistance mutations identified in this study were introduced into the pBR322-HCV-Neo-mADE replicon plasmid by site-directed mutagenesis. Stable replicon cell lines were generated using the T7 transcripts derived from either wild type pBR322-HCV-Neo-mADE or the ones with the resistance mutations.
# (§2) Cells containing hepatitis C virus (HCV) replicon were maintained in DMEM containing 10% fetal bovine serum (FBS), 0.25 mg per ml of G418, with appropriate supplements (media A).
# (§3) On day 1, replicon cell monolayer was treated with a trypsin:EDTA mixture, removed, and then media A was diluted into a final concentration of 100,000 cells per ml with. 10,000 cells in 100 ul were plated into each well of a 96-well tissue culture plate, and cultured overnight in a tissue culture incubator at 37° C.
# (§4) On day 2, compounds (in 100% DMSO) were serially diluted into DMEM containing 2% FBS, 0.5% DMSO, with appropriate supplements (media B). The final concentration of DMSO was maintained at 0.5% throughout the dilution series.
# (§5) Media on the replicon cell monolayer was removed, and then media B containing various concentrations of compounds was added. Media B without any compound was added to other wells as no compound controls.
# (§6) Cells were incubated with compound or 0.5% DMSO in media B for 48 hours in a tissue culture incubator at 37° C. At the end of the 48-hour incubation, the media was removed, and the replicon cell monolayer was washed once with PBS and stored at −80° C. prior to RNA extraction.
# (§7) Culture plates with treated replicon cell monolayers were thawed, and a fixed amount of another RNA virus, such as Bovine Viral Diarrhea Virus (BVDV) was added to cells in each well. RNA extraction reagents (such as reagents from RNeasy kits) were added to the cells immediately to avoid degradation of RNA. Total RNA was extracted according the instruction of manufacturer with modification to improve extraction efficiency and consistency. Finally, total cellular RNA, including HCV replicon RNA, was eluted and stored at −80° C. until further processing.
# (§8) A Taqman real-time RT-PCR quantification assay was set up with two sets of specific primers and probe. One was for HCV and the other was for BVDV. Total RNA extractants from treated HCV replicon cells was added to the PCR reactions for quantification of both HCV and BVDV RNA in the same PCR well. Experimental failure was flagged and rejected based on the level of BVDV RNA in each well. The level of HCV RNA in each well was calculated according to a standard curve run in the same PCR plate. The percentage of inhibition or decrease of HCV RNA level due to compound treatment was calculated using the DMSO or no compound control as 0% of inhibition. The cytotoxicity of the compounds was measured using a mitochondrial enzyme-based cell viability assay, CellTiter 96 AQueous One Solution Cell Proliferation Assay (Promega).
# (§9) Four HCV sub-genomic replicon stable cell lines, including the wild type (wt), and three mutants, A156S, D168V and D168A, were generated using the T7 RNA runoff transcripts from the corresponding high efficiency Con1 replicon plasmids.
# D168V HCV replicon cells = test: HCV replicon cell assay, 48-hour; assay type: cell-based, Hepatitis C virus; details: Hepatitis C virus, 48 h, read-out: Replicon IC50
# Description: as §1, §2, §3, §4, §5, §6, §7, §8, §9
# A156S HCV replicon cells = test: HCV replicon cell assay, 48-hour; assay type: cell-based, Hepatitis C virus
# Description: as §1, §2, §3, §4, §5, §6, §7, §8, §9
# [2] = biological target: T2, D168V mutant HCV NS3 serine protease domain (Hepatitis C virus genotype 1b, UniProt Q9WMX2, D1194V); test: FRET enzyme assay, Ki; assay type: biochemical
# T2 construct: A DNA fragment encoding residues Ala^1-Ser^181 of the HCV NS3 protease (GenBank CAB46913); hexa-histidine (C); made in house; host or cells: E. coli BL21/DE3 pLysS
# [3] = test system: wild type HCV replicon cells (high efficiency Con1 replicon); test: HCV replicon cell assay, 48-hour; assay type: cell-based, Hepatitis C virus; details: 48-hour assay, HCV RNA level, read-out: Replicon IC50
# Description: as §1, §2
# On day 1, replicon cell monolayer was treated with a trypsin:EDTA mixture, removed, and then media A was diluted into a final concentration of 100,000 cells per ml with. […]
# as §8, with “One was for HCV and the other was for BVDV.” left out, “Experimental failure was flagged and rejected based on the level of BVDV RNA in each well.” left out, “(Promega). […]” for “(Promega).”
# [4] = test system: series A (VX-950-resistant) replicon cells; test: HCV replicon cell assay, 48-hour; assay type: cell-based, Hepatitis C virus; details: Hepatitis C virus; series A replicon cells at day 56
# A156T HCV replicon cells = test: HCV replicon cell assay, 48-hour; assay type: cell-based, Hepatitis C virus
# Description: as §1, §2, §3, §4, §5, §6, §7, §8
# (§10) Table 6 summary: Three HCV sub-genomic replicon stable cell lines, including the wild-type, and two mutants, A156T and A156V, were generated using the T7 RNA runoff transcripts from the corresponding high efficiency Con 1 replicon plasmids.
# A156V HCV replicon cells = test: HCV replicon cell assay, 48-hour; assay type: cell-based, Hepatitis C virus
# Description: as §1, §2, §3, §4, §5, §6, §7, §8, §10
# [5] = test system: series C (double-resistant) replicon cells; test: HCV replicon cell assay, 48-hour; assay type: cell-based, Hepatitis C virus; details: 30 μM VX-950, series C replicon cells at day 52
# [6] = biological target: T3, D168A mutant HCV NS3 serine protease domain (Hepatitis C virus genotype 1b, UniProt Q9WMX2, D1194A); test: FRET enzyme assay, Ki; assay type: biochemical
# T3 construct: A DNA fragment encoding residues Ala^1-Ser^181 of the HCV NS3 protease (GenBank CAB46913); hexa-histidine (C); made in house; host or cells: E. coli BL21/DE3 pLysS
# [7] = biological target: T4, A156V mutant HCV NS3 serine protease domain (Hepatitis C virus genotype 1b, UniProt Q9WMX2, A1182V); test: FRET enzyme assay, Ki; assay type: biochemical
# T4 construct: A DNA fragment encoding residues Ala^1-Ser^181 of the HCV NS3 protease (GenBank CAB46913); hexa-histidine (C); made in house; host or cells: E. coli
# [8] = test system: series D (double-resistant) replicon cells; test: HCV replicon cell assay, 48-hour; assay type: cell-based, Hepatitis C virus
# [9] = test system: series B (BILN 2061-resistant) replicon cells; test: HCV replicon cell assay, 48-hour; assay type: cell-based; details: Hepatitis C virus
# [10] = biological target: wild type HCV NS3 serine protease domain, genotype 1b (Hepatitis C virus genotype 1b, UniProt Q9WMX2); test: biochemical
# [11] = biological target: T5, A156S mutant HCV NS3 serine protease domain (Hepatitis C virus genotype 1b, UniProt Q9WMX2, A1182S); test: FRET enzyme assay, Ki; assay type: biochemical
# T5 construct: A DNA fragment encoding residues Ala^1-Ser^181 of the HCV NS3 protease (GenBank CAB46913); hexa-histidine (C); made in house; host or cells: E. coli BL21/DE3 pLysS
# [12] = test system: wild-type HCV Con1 sub-genomic replicon cells; test: HCV replicon cell assay, 48-hour; assay type: cell-based, Hepatitis C virus; details: Hepatitis C virus, 48-hour assay
# Procedure: as §2, §3
# On day 2, compounds (in 100% DMSO) were serially diluted into DMEM containing 2% FBS, 0.5% DMSO, with appropriate supplements (media B). […]
# as §8, with “One was for HCV and the other was for BVDV.” left out, “Experimental failure was flagged and rejected based on the level of BVDV RNA in each well.” left out
# [13] = Hepatitis C virus, 48-hour assay
compound,measurement,setting,value
CCC[C@H](NC(=O)C1[C@H]2CCC[C@H]2CN1C(=O)[C@@H](NC(=O)[C@@H](NC(=O)c1cnccn1)C1CCCCC1)C(C)(C)C)C(=O)C(=O)NC1CC1 (some centres unmarked) [VX-950],Ki,[1],9900 nM
same,IC50,D168A HCV replicon cells,193 nM
same,IC50,D168V HCV replicon cells,163 nM
same,IC50,A156S HCV replicon cells; Hepatitis C virus,4650 nM
same,IC50,"A156S HCV replicon cells; Hepatitis C virus, 48 h, 48-hour assay, read-out: Replicon IC50",4650 nM
same,IC50,"A156S HCV replicon cells; read-out: Replicon IC50, 48-hour assay",5090 nM
same,Ki,[2],43 nM
same,IC50,[3],402 nM
same,IC50,"[3]; Hepatitis C virus, 48 h",400 nM
same,IC50,[4],8100 to 12000 nM
same,decrease in sensitivity conferred by the mutation,A156T HCV replicon cells,at least 75 fold
same,IC50,A156T HCV replicon cells; [13],> 30000 nM
same,reduction of HCV replicon RNA,A156T HCV replicon cells; up to 30 μM VX-950,No significant reduction
same,decrease in sensitivity conferred by the mutation,A156V HCV replicon cells,at least 75 fold
same,IC50,A156V HCV replicon cells; [13],> 30000 nM
same,reduction of HCV replicon RNA,A156V HCV replicon cells; up to 30 μM VX-950,No significant reduction
same,reduction of HCV RNA,[5],≤ 50%
same,Ki,[6],150 nM
same,Ki,[7],33000 nM
same,reduction of HCV RNA,"[8]; 30 μM VX-950, series D replicon cells at day 52",≤ 50%
same,IC50 higher than against the series B replicon cells,[8]; series D replicon cells at day 52,more than 100 fold
same,IC50,[9],~300 nM
same,Ki,[10],100 nM
same,Ki,[11],2900 nM
same,Ki higher than against the wild type protease,[11],29 fold
same,IC50,[12],354 nM

# From patent publication US7884199B2, “HCV NS3-NS4 protease resistance mutants” (priority 2003, dated 2011)
